# Measured values: ChEMBL document CHEMBL1201862, “PubChem BioAssay data set” (2004)
#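 Protocol summary: plate cells (96-well), add compound at 5 concentrations, incubate 48 h, interpolate endpoints linearly. Here, GI50 denotes the concentration required for 50% inhibition of growth.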 Calls of active or inactive are those of the source. No stated cut-off is given here; in the data, active = GI50 up to about 1.1 µM and inactive = higher.
# Assays:
# Assay in all cases: NCI-60 cell line screen, 48 h
# CCRF-CEM = system: CCRF-CEM
# EKVX = system: EKVX
# HCC 2998 = system: HCC 2998
# HCT-116 = system: HCT-116
# HOP-62 = system: HOP-62
# K562 = system: K562
# LOX IMVI = system: LOX IMVI
# M14 = system: M14
# MDA-MB-231 = system: MDA-MB-231
# MOLT-4 = system: MOLT-4
# NCI-H522 = system: NCI-H522
# SF-268 = system: SF-268
# SF-295 = system: SF-295
# SK-MEL-28 = system: SK-MEL-28
# SK-MEL-2 = system: SK-MEL-2
# SK-MEL-5 = system: SK-MEL-5
# SR = system: SR
# UACC-62 = system: UACC-62
# HL-60 = system: HL-60
# SNB-75 = system: SNB-75
SMILES,GI50 (CCRF-CEM),GI50 (EKVX),GI50 (HCC 2998),GI50 (HCT-116),GI50 (HOP-62),GI50 (K562),GI50 (LOX IMVI),GI50 (M14),GI50 (MDA-MB-231),GI50 (MOLT-4),GI50 (NCI-H522),GI50 (SF-268),GI50 (SF-295),GI50 (SK-MEL-28),GI50 (SK-MEL-2),GI50 (SK-MEL-5),GI50 (SR),GI50 (UACC-62),GI50 (HL-60),GI50 (SNB-75)
COc1ccc2c(c1)C(=O)CCc1cc(OC)c(OC)c(OC)c1-2,0.0512 µM (active),0.045 µM (active),0.0412 µM (active),0.0506 µM (active),0.0662 µM (active),0.0366 µM (active),0.0966 µM (active),0.0347 µM (active),0.166 µM (active),0.0564 µM (active),< 0.01 µM (active),0.0948 µM (active),0.0384 µM (active),0.0818 µM (active),0.0818 µM (active),0.0521 µM (active),0.0354 µM (active),0.075 µM (active),,
CCNc1cc2c(cc1O)CC[C@@H]1[C@@H]2CC[C@]2(C)[C@@H](O)CC[C@@H]12,1.41 µM (inactive),16.3 µM (inactive),1.02 µM (active),,,0.711 µM (active),2.98 µM (inactive),1.78 µM (inactive),10.5 µM (inactive),3.13 µM (inactive),2.04 µM (inactive),15.8 µM (inactive),0.912 µM (active),4.59 µM (inactive),,0.394 µM (active),1.31 µM (inactive),,1.52 µM (inactive),0.272 µM (active)
CNC(=S)N/N=C(\C)c1cc(OC)c(OC)cc1O,> 100 µM (inactive),> 100 µM (inactive),> 100 µM (inactive),> 100 µM (inactive),> 100 µM (inactive),7.29 µM (inactive),,> 100 µM (inactive),> 100 µM (inactive),> 100 µM (inactive),,> 100 µM (inactive),,> 100 µM (inactive),> 100 µM (inactive),> 100 µM (inactive),> 100 µM (inactive),> 100 µM (inactive),0.0556 µM (active),> 100 µM (inactive)
CCOC(=O)c1c(CN2CCOCC2)n(Cc2ccccc2)c2c1cc(O)c1nc(C)c(C)nc12,> 100 µM (inactive),> 100 µM (inactive),> 100 µM (inactive),38.3 µM (inactive),21.3 µM (inactive),84.9 µM (inactive),46.6 µM (inactive),> 100 µM (inactive),85.1 µM (inactive),71 µM (inactive),,21.8 µM (inactive),56.5 µM (inactive),> 100 µM (inactive),20 µM (inactive),22.6 µM (inactive),44 µM (inactive),38.7 µM (inactive),> 100 µM (inactive),9.98 µM (inactive)
Cc1ccc(Nc2n[nH]c(=S)s2)cc1,> 100 µM (inactive),> 100 µM (inactive),> 100 µM (inactive),> 100 µM (inactive),> 100 µM (inactive),> 100 µM (inactive),> 100 µM (inactive),> 100 µM (inactive),> 100 µM (inactive),> 100 µM (inactive),,> 100 µM (inactive),> 100 µM (inactive),> 100 µM (inactive),,99.1 µM (inactive),> 100 µM (inactive),> 100 µM (inactive),> 100 µM (inactive),> 100 µM (inactive)
CC(=O)Nc1ccc2cc(C)c(O)nc2n1,> 100 µM (inactive),> 100 µM (inactive),,> 100 µM (inactive),,> 100 µM (inactive),,> 100 µM (inactive),75.7 µM (inactive),> 100 µM (inactive),> 100 µM (inactive),> 100 µM (inactive),> 100 µM (inactive),> 100 µM (inactive),> 100 µM (inactive),> 100 µM (inactive),> 100 µM (inactive),> 100 µM (inactive),> 100 µM (inactive),43.7 µM (inactive)
CCCOC(=O)C1C2CCC(O2)C1C(=O)O (stereo not given),> 100 µM (inactive),> 100 µM (inactive),,> 100 µM (inactive),> 100 µM (inactive),> 100 µM (inactive),> 100 µM (inactive),> 100 µM (inactive),> 100 µM (inactive),> 100 µM (inactive),> 100 µM (inactive),> 100 µM (inactive),> 100 µM (inactive),> 100 µM (inactive),> 100 µM (inactive),> 100 µM (inactive),> 100 µM (inactive),> 100 µM (inactive),> 100 µM (inactive),36.3 µM (inactive)
COc1cc(/C=C2/SC(c3ccccc3)N(c3ccccc3)C2=O)cc(OC)c1OC (stereo not given),10.6 µM (inactive),51.6 µM (inactive),> 100 µM (inactive),15.7 µM (inactive),44.8 µM (inactive),8.97 µM (inactive),69.5 µM (inactive),49.9 µM (inactive),> 100 µM (inactive),8.24 µM (inactive),21.7 µM (inactive),> 100 µM (inactive),27 µM (inactive),> 100 µM (inactive),> 100 µM (inactive),12.1 µM (inactive),14 µM (inactive),24.4 µM (inactive),35.6 µM (inactive),
Oc1ccc(-c2nc(-c3ccc4ccccc4n3)c(-c3ccc(F)cc3)[nH]2)cc1,15.1 µM (inactive),17.8 µM (inactive),3.94 µM (inactive),12.9 µM (inactive),18 µM (inactive),14.5 µM (inactive),10.6 µM (inactive),11 µM (inactive),18.5 µM (inactive),1.87 µM (inactive),,13 µM (inactive),10.4 µM (inactive),17.4 µM (inactive),14.5 µM (inactive),2.12 µM (inactive),6.25 µM (inactive),11.5 µM (inactive),5.94 µM (inactive),21.6 µM (inactive)
Nc1nc2c(ncn2Cc2ccc(CO)cc2)c(=O)[nH]1,> 100 µM (inactive),> 100 µM (inactive),,> 100 µM (inactive),> 100 µM (inactive),> 100 µM (inactive),> 100 µM (inactive),> 100 µM (inactive),> 100 µM (inactive),> 100 µM (inactive),> 100 µM (inactive),> 100 µM (inactive),> 100 µM (inactive),> 100 µM (inactive),> 100 µM (inactive),> 100 µM (inactive),95.5 µM (inactive),> 100 µM (inactive),4.42 µM (inactive),> 100 µM (inactive)
C[C@@]1(CO)[C@H](O)CC[C@@]2(C)[C@H]1CC[C@H]1C[C@@H]3C[C@@]12CC[C@@]3(O)COC(=O)CN,0.67 µM (active),16.4 µM (inactive),4.23 µM (inactive),,14 µM (inactive),5.55 µM (inactive),5.57 µM (inactive),5.15 µM (inactive),34.8 µM (inactive),2.23 µM (inactive),,9.29 µM (inactive),,100 µM (inactive),64.9 µM (inactive),11.2 µM (inactive),0.811 µM (active),2.32 µM (inactive),0.293 µM (active),
N#C/N=C1/c2ccccc2/C(=N/C#N)c2cc(CO)ccc21,,27.7 µM (inactive),,29.2 µM (inactive),42.6 µM (inactive),23.3 µM (inactive),30.5 µM (inactive),48.2 µM (inactive),71.4 µM (inactive),16.4 µM (inactive),39 µM (inactive),39.2 µM (inactive),32.6 µM (inactive),43 µM (inactive),61.2 µM (inactive),27 µM (inactive),17 µM (inactive),,21.6 µM (inactive),24.2 µM (inactive)
CCOC(=O)C1=C(C)N(Cc2ccc(Cl)cc2Cl)C2(O)C=CC(=O)C3C(=O)N(c4ccccc4)C(=O)C132 (stereo not given),0.222 µM (active),1.89 µM (inactive),1.71 µM (inactive),3.11 µM (inactive),2.87 µM (inactive),0.659 µM (active),0.682 µM (active),3.27 µM (inactive),2.1 µM (inactive),1.41 µM (inactive),1.72 µM (inactive),2.38 µM (inactive),2.88 µM (inactive),1.59 µM (inactive),1.77 µM (inactive),2.09 µM (inactive),0.51 µM (active),1.63 µM (inactive),1.46 µM (inactive),
O=c1[nH]c(=O)n(C2OC(CO)C(O)C2O)cc1OCCc1ccccc1 (stereo not given),> 100 µM (inactive),> 100 µM (inactive),> 100 µM (inactive),> 100 µM (inactive),> 100 µM (inactive),,> 100 µM (inactive),> 100 µM (inactive),> 100 µM (inactive),> 100 µM (inactive),> 100 µM (inactive),> 100 µM (inactive),> 100 µM (inactive),> 100 µM (inactive),> 100 µM (inactive),> 100 µM (inactive),> 100 µM (inactive),> 100 µM (inactive),> 100 µM (inactive),
Oc1cccc2ccc(Br)nc12,46.6 µM (inactive),> 100 µM (inactive),63 µM (inactive),> 100 µM (inactive),> 100 µM (inactive),> 100 µM (inactive),> 100 µM (inactive),> 100 µM (inactive),> 100 µM (inactive),> 100 µM (inactive),> 100 µM (inactive),> 100 µM (inactive),> 100 µM (inactive),> 100 µM (inactive),,> 100 µM (inactive),62.4 µM (inactive),> 100 µM (inactive),36.2 µM (inactive),> 100 µM (inactive)
